# Assays:
# in vivo [1] = conditions: Sprague Dawley, rat, 7 mg powder
# [2] = cited from earlier work
# in vivo [3] = conditions: rat; for bioavailability / bioavailability at 15 min / bioavailability at 60 min: 2 mg
# Procedure: Determinations of plasma levels of L-Dopa were made following IV injection, oral gavage, or insufflation into the lungs. Carbidopa generally is administered to ensure that peripheral decarboxylase activity is completely shut down. In this example, animals received an intraperitoneal (IP) injection of the peripheral decarboxylase inhibitor carbidopa (200 mg/kg) 1 hour prior to administration of L-Dopa. Under ketamine anesthesia, the animals were divided into 3 groups. In the first group of animals, L-Dopa (2 mg) was suspended in saline containing 1% methylcellulose and 1% ascorbic acid and given via oral gavage. In the second group, an insufflation technique was used for pulmonary administration of particles including L-Dopa (20% loading density). A laryngoscope was used to visualize the rat's epiglottis and the blunt-tip insufflation device (PennCentury Insufflation powder delivery device) was inserted into the airway. A bolus of air (3 cc), from an attached syringe, was used to delivery the pre-loaded powder from the chamber of the device into the animal's lungs. A total of 10 mg of powder (2 mg L-Dopa) was delivered. In the third group, a previously-placed femoral cannula was used to delivery a bolus (2-3 second) of L-Dopa (2 mg). Blood samples (200 μL) were withdrawn from each animal using the femoral cannula at the following timepoints: 0 (immediately prior to L-Dopa administration), 2, 5, 15, 30, 60, 120, and 240 minutes following L-Dopa administration. All samples were processed for L-Dopa determinations using HPLC.
# Bioavailability was estimated by performing area under the curve (AUC) calculations.
# [4] = test system: rat model of Parkinson's disease (unilateral 6-OHDA lesion); test: Placing task; type: in vivo
# [5] = test system: rat model of Parkinson's disease (unilateral 6-OHDA lesion); test: Bracing task; type: in vivo
# [6] = test system: rat model of Parkinson's disease (unilateral 6-OHDA lesion); test: Akinesia task; type: in vivo
# [7] = test system: rat model of Parkinson's disease (unilateral 6-OHDA lesion); test: Rotation test; type: in vivo
# Procedure: Animals also were tested on a standard pharmacodynamics rotation test known to be a sensitive and reliable measure of dopamine activity in the brain. […] These doses were chosen for this test because they represent the doses of L-Dopa shown to produce maximal efficacy in the previous functional tests. Following dosing, animals were placed into a cylindrical Plexiglas bucket. […] Animals were also tested for rotation behavior with and without pre-treatment with carbidopa. […] Because the dopamine depletions are unilateral, the uninjected side remained intact and still able respond to changes in dopamine activity. When these animals were injected with a dopamine agonist (i.e. L-Dopa) brain dopamine activity was stimulated preferentially on the intact side. […] The onset and number of rotations provided a measure of both the time course as well as the extent of increased dopamine activity.
# migraine = conditions: cited from earlier work
# [8] = cited from earlier work; remark: listed apart in the source
structure (smiles),measurement,setting,value
CC(C(=O)O)c1cccc(C(=O)c2ccccc2)c1 (centres unmarked) [Ketoprofen],concentration at 5 min,in vivo [1],9600 ng/mL
same,concentration at 15 min,in vivo [1],7600 ng/mL
same,concentration at 30 min,in vivo [1],5500 ng/mL
same,concentration at 60 min,in vivo [1],4500 ng/mL
same,concentration at 120 min,in vivo [1],2400 ng/mL
same,concentration at 240 min,in vivo [1],1800 ng/mL
same,concentration at 360 min,in vivo [1],1800 ng/mL
same,concentration at 480 min,in vivo [1],1300 ng/mL
same,concentration at 5 min,in vivo [1]; po,1700 ng/mL
same,concentration at 15 min,in vivo [1]; po,2100 ng/mL
same,concentration at 30 min,in vivo [1]; po,1900 ng/mL
same,concentration at 60 min,in vivo [1]; po,2000 ng/mL
same,concentration at 120 min,in vivo [1]; po,1700 ng/mL
same,concentration at 240 min,in vivo [1]; po,1400 ng/mL
same,concentration at 360 min,in vivo [1]; po,1000 ng/mL
same,concentration at 480 min,in vivo [1]; po,1000 ng/mL
same,Tmax via the oral route,[2]; oral,about 90 min
"N[C@@H](Cc1ccc(O)c(O)c1)C(=O)O [L-Dopa, levodopa]",concentration at 2 min,in vivo [3],5000 ng/mL
same,bioavailability,in vivo [3],~75%
same,bioavailability at 15 min,in vivo [3],38%
same,bioavailability at 60 min,in vivo [3],62%
same,concentration at 2 min,in vivo [3]; po,1000 ng/mL
same,bioavailability,in vivo [3]; po,33%
same,bioavailability at 15 min,in vivo [3]; po,9%
same,bioavailability at 60 min,in vivo [3]; po,24%
same,"difference in drug required for equivalent efficacy, oral vs pulmonary","[4]; 30 mg/kg oral vs 1 mg pulmonary, normalized by body weight",~10 fold
same,time of maximal effects,[4]; oral 20 mg/kg,60 min
same,time of peak performance,[4]; oral 30 mg/kg,1 to 2 h
same,time to improved performance with impaired limb,[4]; oral 30 mg/kg,≤ 30 min
same,lowest dose with significant improvements,[4]; pulmonary,0.5 mg
same,time of peak benefits,"[4]; pulmonary, highest dose tested",15 to 30 min
same,time to significant improvements,"[4]; pulmonary, highest dose tested",≤ 10 min
same,time of maximal effects,[5]; oral 30 mg/kg,≤ 60 min
same,time to improved performance,[5]; oral 30 mg/kg,≤ 30 min
same,lowest dose with statistically significant improvements,[5]; pulmonary,0.5 mg
same,time of peak benefits,[5]; pulmonary,15 to 30 min
same,time to significant improvements,[5]; pulmonary,≤ 10 min
same,time of maximal effects,[6]; oral 30 mg/kg,≤ 60 min
same,time to improved performance,[6]; oral 30 mg/kg,≤ 30 min
same,lowest dose with statistically significant (p<0.05) improvements,[6]; pulmonary,1.0 mg
same,time of peak benefits,[6]; pulmonary,15 to 30 min
same,time to significant improvements,[6]; pulmonary,≤ 10 min
same,time of peak rotations,[7]; oral 30 mg/kg,approximately 30 minutes
same,rotations during the first 10-15 minutes,"[7]; oral 30 mg/kg, carbidopa pre-treatment",< 5 rotations/animal
same,time of peak rotations,[7]; pulmonary 2 mg total,25 to 30 min
same,rotations relative to oral delivery within the first 10-15 minutes,[7]; pulmonary 2 mg total vs oral 30 mg/kg,greater than 3 times
CNS(=O)(=O)Cc1ccc2[nH]cc(CCN(C)C)c2c1 [sumatriptan],efficacy rate,migraine; administered intravenously (IV),90%
same,efficiency rate,migraine; oral form,approximately 60%
Cc1nnc2n1-c1ccc(Cl)cc1C(c1ccccc1Cl)=NC2 [triazolam],solubility in alcohol,[8]; alcohol,soluble
same,solubility in water,[8]; water,poorly soluble
Cc1ccc(-c2nc3ccc(C)cn3c2CC(=O)N(C)C)cc1 [zolpidem],Tmax,[2]; 5 mg tablet,1.6 h
same,½ Life,[2]; 5 mg tablet,2.6 h
same,time to peak plasma levels,[2]; in vivo,about 2 hours

# From patent publication US6613308B2, “Pulmonary delivery in treating disorders of the central nervous system” (Advanced Inhalation Research, Inc., priority 2000, dated 2003)
